Source: patent US20110098304A1, “Small molecule inhibitors of PARP activity” (priority 2009, published 2011)

Target: T1, human PARD-1 (Poly (ADP-Ribose) Polymerase-1) (Homo sapiens, UniProt P09874)
T1 construct: purchased Trevigen Inc., Gaithersburg, Md
Assay: Poly (ADP-Ribose) Polymerase-1 in vitro enzyme assay (Universal Colorimetric Assay Kit, Trevigen)
Assay type: biochemical
Conditions: letter codes; read-out: extent of inhibition of PARP activity (IC50, micromolar)
Method: Poly (ADP-Ribose) Polymerase-1 (PARD-1) In Vitro Enzyme Assay: Compounds were screened for inhibitory activity against human PARD-1 in vitro using the Universal Colorimetric PARD Assay Kit (Trevigen Inc., Gaithersburg, Md.) as directed by the supplier. Compounds are assayed in duplicate in 0.5% DMSO final concentration, negative control is no enzyme, while positive control is DMSO vehicle alone. IC50 determinations are made using Microsoft Excel. For all cell assays, compounds are added to cells in 5% DMSO/PBS for a final concentration of 0.5% DMSO.

T1 sequence (P09874 whole entry): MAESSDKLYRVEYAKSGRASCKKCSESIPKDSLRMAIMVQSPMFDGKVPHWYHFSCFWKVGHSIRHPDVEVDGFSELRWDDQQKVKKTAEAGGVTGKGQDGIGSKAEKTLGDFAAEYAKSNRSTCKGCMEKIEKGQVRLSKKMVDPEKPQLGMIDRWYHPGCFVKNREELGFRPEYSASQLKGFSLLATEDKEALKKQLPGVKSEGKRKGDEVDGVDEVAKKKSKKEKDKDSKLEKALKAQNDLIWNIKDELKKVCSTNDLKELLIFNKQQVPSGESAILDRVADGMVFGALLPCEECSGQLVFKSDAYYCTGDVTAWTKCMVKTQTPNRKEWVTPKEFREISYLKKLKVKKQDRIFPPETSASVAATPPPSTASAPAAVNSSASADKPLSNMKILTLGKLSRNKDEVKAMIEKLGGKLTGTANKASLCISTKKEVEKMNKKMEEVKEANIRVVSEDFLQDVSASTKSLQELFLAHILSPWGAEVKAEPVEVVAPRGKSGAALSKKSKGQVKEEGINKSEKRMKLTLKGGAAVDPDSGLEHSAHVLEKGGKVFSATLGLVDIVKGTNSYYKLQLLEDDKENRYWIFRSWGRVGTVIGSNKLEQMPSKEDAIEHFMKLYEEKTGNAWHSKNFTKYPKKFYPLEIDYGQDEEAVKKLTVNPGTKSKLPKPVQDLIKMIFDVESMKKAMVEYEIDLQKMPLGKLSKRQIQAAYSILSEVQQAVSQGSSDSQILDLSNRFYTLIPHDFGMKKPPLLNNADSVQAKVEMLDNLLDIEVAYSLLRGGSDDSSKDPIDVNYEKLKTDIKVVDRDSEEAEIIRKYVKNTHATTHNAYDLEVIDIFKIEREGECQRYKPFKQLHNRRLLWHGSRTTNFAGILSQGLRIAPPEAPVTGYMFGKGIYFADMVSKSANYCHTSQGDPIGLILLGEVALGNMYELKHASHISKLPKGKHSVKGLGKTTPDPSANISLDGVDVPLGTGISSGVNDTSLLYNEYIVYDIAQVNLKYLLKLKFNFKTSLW

| SMILES | IC50 [µM] |
| --- | --- |
| CN1CCN(c2ccc(-c3n[nH]c(=O)c4ccccc34)cc2NC(=O)C(C)(C)C)CC1 [N-(2-(4-methylpiperazin-1-yl)-5-(4-oxo-3,4-dihydrophthalazin-1-yl)phenyl)pivalamide] | > 5 |
| CN1CCN(c2ccc(-c3n[nH]c(=O)c4ccccc34)cc2NC(=O)NC(=O)c2ccccc2)CC1 [N-(2-(4-methylpiperazin-1-yl)-5-(4-oxo-3,4-dihydrophthalazin-1-yl)phenylcarbamoyl)benzamide] | 0.1 to 1 |
| CC(C)(C)C(=O)Nc1cc(-c2n[nH]c(=O)c3ccccc23)ccc1N1CCN(C(C)(C)C)CC1 [N-(2-(4-tert-butylpiperazin-1-yl)-5-(4-oxo-3,4-dihydrophthalazin-1-yl)phenyl)pivalamide] | > 5 |
| COC(=O)C(=O)Nc1cc(-c2n[nH]c(=O)c3ccccc23)ccc1N1CCN(C)CC1 [methyl 2-(2-(4-methylpiperazin-1-yl)-5-(4-oxo-3,4-dihydrophthalazin-1-yl)phenylamino)-2-oxoacetate] | 0.1 to 1 |

Second part, the compound after the results:

| IC50 [µM] | SMILES |
| --- | --- |
| 1 to 5 | CC(=O)Nc1cc(-c2n[nH]c(=O)c3ccccc23)ccc1N1CCN(C(C)(C)C)CC1 [N-(2-(4-tert-butylpiperazin-1-yl)-5-(4-oxo-3,4-dihydrophthalazin-1-yl)phenyl)acetamide] |
| 0.1 to 1 | CC(C)(C)OC(=O)CN1CCN(c2ccc(-c3n[nH]c(=O)c4ccccc34)cc2N)CC1 [tert-butyl 2-(4-(2-amino-4-(4-oxo-3,4-dihydrophthalazin-1-yl)phenyl)piperazin-1-yl)acetate] |
